In patent publication US20250352577A1, “TUMOR NEOANTIGENIC PEPTIDES AND USES THEREOF” (MNEMO THERAPEUTICS, priority 2021, published 2025):
“Also recorded” adds a separate entry of the source.

T1: TE-exon fusion (JET / chimeric) transcript-derived peptide, LUAD (peptide 17) peptide on HLA-A*02:01 (human)
T1 peptide: LLDRFGYHV

T2: TE-exon fusion (JET / chimeric) transcript-derived peptide, LUAD (peptide 53) peptide on HLA-A*02:01 (human)
T2 peptide: MLVTWELAL

B1: TCR number 1 (Table 4bis) (TCR)
alpha TRAV41*01 TRAJ34*01 CDR3: CAVLLDNTDKLIF
beta TRBV6-5*01 TRBJ-2*01 CDR3: CASSRLQGALELFF
B2: TCR number 4 (Table 4bis) (TCR)
alpha TRAV35*01 TRAJ54*01 CDR3: CAGQLAGAQKLVF
beta TRBV13*01 TRBJ2-5*01 CDR3: CASSPSRDGQETQYF

Experiments:
[1] = test system: CD8+ T cells from HLA-A2+ healthy donors; assay: Priming of naive CTLs (immunogenicity assay) with two-colour tetramer staining; type: cell-based, human; details: for percentage of tetramer positive cells among total CD8+ T cells compared to control: one donor, control co-culture without peptides; for specific CD8+ T cell expansion (immunogenicity): total of 6 healthy donors, FIG. 11A
Protocol: Priming of naïve CTLs. […] CD14+, CD4+ and CD8+ cells were purified by positive selection using magnetic beads (Miltenyi Biotec). While CD4+ and CD8+ T cells were cryopreserved until the experiment day, CD14+ fraction was cultured in the presence of IL-4 (50 ng/mL) and GM-CSF (10 ng/mL) at 10^6 cells/mL during 5 days to obtain moDCs. After this period of time, the moDCs were maturated with LPS and incubated with synthetic ER-derived peptides at a final concentration of 1 μg/mL for 2 hours.
Tetramer Staining. Cells were resuspended in PBS, stained with Live/Dead Aqua-405 nm (ThermoFisher) during 20 minutes at 4° C. and washed once. After that, cells were resuspended in PBS-1% BSA containing the mix of SA-coupled tetramers and incubated in the dark at room temperature during 20 minutes. Without further washing, surface antibodies were added in PBS-1% BSA and cells were incubated 20 minutes in the dark at 4° C. […] Finally, cells were washed twice and resuspended in FACS buffer for flow cytometry analysis.
Priming assays were thus performed to test the ability of identified peptides to expand specific cytotoxic T cells. […] After loading the moDCs with a mix of synthetic peptides, autologous co-culture was performed with CD4+ and CD8+ T cells. Finally, the expansion of specific CD8+ T cells was analysed by flow cytometry using two-colours tetramer staining. As a control of specific expansion, the co-culture was performed in the absence of peptides.
The same experiment was performed in order to evaluate the response in additional 5 donors. […] As a positive of expansions, mutated Melan-A peptide ([…]) were used.

[2] = test system: CD8+ T cells of LUAD patients; assay: Tetramer staining of CD8+ T cells from LUAD patient samples and TILs; type: cell-based, human; details: TILs expanded with peptide mix + IL-2 or IL-2 only
Protocol: Tetramer Staining. Cells were resuspended in PBS, stained with Live/Dead Aqua-405 nm (ThermoFisher) during 20 minutes at 4° C. and washed once. After that, cells were resuspended in PBS-1% BSA containing the mix of SA-coupled tetramers and incubated in the dark at room temperature during 20 minutes. Without further washing, surface antibodies were added in PBS-1% BSA and cells were incubated 20 minutes in the dark at 4° C. Surface antibodies were a combination of anti-CD3-BV650+ anti-CD8-PECy7 in combination with anti-CCR7-AF700+ anti-CD45RA-BUV395 when required. Finally, cells were washed twice and resuspended in FACS buffer for flow cytometry analysis.
Tissues and Blood samples. […]
Tumor infiltrating lymphocytes (TILs) cultures. […] Cells were feed/split as necessary during 15-20 days and cryopreserve or analyzed for tetramer staining.
In a first set of experiments tumor infiltrating lymphocytes (TILs) expanded with a mix of TE-derived peptides and Il-2, or only with Il-2, were analyzed by tetramer staining. […]
In a second cohort of 5 primary, untreated, LUAD tumor, juxta-tumor, tumor-draining lymph node and blood samples from LUAD cancer HLA-A2+ patients were analyzed. […]

[3] = target: T1, TE-exon fusion (JET / chimeric) …; assay: multimer staining
[4] = target: T2, TE-exon fusion (JET / chimeric) …; assay: multimer staining

Molecule	specific CD8+ T cell expansion (immunogenicity) [1]	further results
AILPKANTV	specific CD8+ T expansions	percentage of tetramer positive cells among total CD8+ T cells compared to control [1]: increase in at least one magnitude order
AMDGKELSL	specific CD8+ T expansions	
FLGTRVTRV	specific CD8+ T expansions	
FLIVAEILI		percentage of tetramer positive cells among total CD8+ T cells compared to control [1]: increase in at least one magnitude order
GLLNISHTA	specific CD8+ T expansions	
GLPSHVELA	specific CD8+ T expansions; also recorded: immunogenic	tetramer positive CD8+ T cells in TILs of LUAD patients [2]: TILs recognizing
ILHSLVTGV	specific CD8+ T expansions	
ILSGYGPCV	specific CD8+ T expansions	
ILTASITSI	specific CD8+ T expansions	
LLDRFGYHV	specific CD8+ T expansions	
LLGETKVYV	specific CD8+ T expansions	percentage of tetramer positive cells among total CD8+ T cells compared to control [1]: increase in at least one magnitude order
LLHLESFLV	specific CD8+ T expansions	
LLTSWHLYL	specific CD8+ T expansions	
MLMKTVWQA	specific CD8+ T expansions	
MLVTWELAL	specific CD8+ T expansions	
RLADHLSFC	specific CD8+ T expansions; also recorded: immunogenic	percentage of tetramer positive cells among total CD8+ T cells compared to control [1]: increase in at least one magnitude order
RLLHLESFL	specific CD8+ T expansions	percentage of tetramer positive cells among total CD8+ T cells compared to control [1]: increase in at least one magnitude order
RQAPGFHHA	specific CD8+ T expansions	
SLMQSGSPV	specific CD8+ T expansions	
VLLTNTIWL	specific CD8+ T expansions	
VLMWTMAHL	specific CD8+ T expansions	
YLPYFLKSL	specific CD8+ T expansions	
YLQGLPLPL	specific CD8+ T expansions	
YLWTTFFPL	specific CD8+ T expansions	percentage of tetramer positive cells among total CD8+ T cells compared to control [1]: increase in at least one magnitude order
B1		binding result [3]: recognises
B2		binding result [4]: recognises
